Residue numbers refer to the chain shown, from its start.
Legend:
[1] = biological target: T1, TALK-2 L264A mutant channels (Homo sapiens, UniProt Q96T54, L264A)
T1 sequence (Q96T54 1-332 L264A): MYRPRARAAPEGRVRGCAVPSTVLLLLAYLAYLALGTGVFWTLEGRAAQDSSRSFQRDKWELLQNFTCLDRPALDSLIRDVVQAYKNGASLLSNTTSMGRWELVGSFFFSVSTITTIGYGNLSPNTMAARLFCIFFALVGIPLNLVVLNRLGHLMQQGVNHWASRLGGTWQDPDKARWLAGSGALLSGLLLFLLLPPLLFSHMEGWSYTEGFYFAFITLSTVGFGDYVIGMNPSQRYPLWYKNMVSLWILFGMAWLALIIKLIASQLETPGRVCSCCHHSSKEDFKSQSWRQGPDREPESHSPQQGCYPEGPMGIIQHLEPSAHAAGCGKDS
Experimental: Oocytes were surgically removed from anesthetized adult females, treated with type II collagenase (Sigma-Aldrich/Merck, Germany) and manually defolliculated. 50 nl of a solution containing the K^+ channel specific cRNA was injected into Dumont stage V - VI oocytes and subsequently incubated at 17 °C in a solution containing (mM): 54 NaCl, 30 KCl, 2.4 NaHCO3, 0.82 MgSO4 x 7 H2O, 0.41 CaCl2, 0.33 Ca(NO3)2 x 4 H2O and 7.5 TRIS (pH 7.4 adjusted with NaOH/HCl) for 1–7 days before use. Electrophysiological recordings: Excised patch measurements in inside-out configuration under voltage-clamp conditions were performed at room temperature (22 – 24 °C). […] Currents were recorded with an EPC10 amplifier (HEKA electronics, Germany) and sampled at 10 kHz or higher and filtered with 3 kHz (-3 dB) or higher as appropriate for sampling rate.
Recorded currents were analyzed from stable membrane patches at a voltage defined in the respective figure legend or with a voltage protocol as indicated in the respective figure. The fold activation (fold change in (tail) current amplitude) of a ligand (drug or bioactive lipid) was calculated from Eq. 1:1 Fold activationFA=Iactivated/Ibasal where Iactivated represents the stable current level in the presence of a given concentration of a respective ligand and Ibasal the measured current before ligand application. […]

[2] = biological target: T1, TALK-2 L264A mutant channels; test: Conductance-voltage (G-V) curves from tail currents, V1/2 (intracellular Rb+); assay type: cell-based; set-up: expressed in transfected cells; host or cells: Xenopus laevis oocytes (cRNA injection), excised inside-out patches; conditions: for Normalized current: TALK-2 L264A + 1 mM TPenA
Excerpt: The voltage-dependent activation mechanism of the SF gate in K2P channels allows to estimate the electrical work (ΔG = zFΔV1/2) required for pore opening by fitting the G–V curve to a Boltzmann equation. […] The open state represents the situation of both gates being simultaneously open but voltage can only exert force on the SF gate that functions as voltage sensor. […] We further tested whether mutations that open the lower gate (L262A and L264A) would affect the extracellular pH sensitivity. […] We further explored this concept of allosteric coupling using the mutations identified in the functional alanine screen of TM2 and TM4.
Dashed lines in e, f represent the level of WT (unstimulated) V1/2 at pHe 7.4. g Normalized currents from TEVC measurements of oocytes expressing WT (n = 11) and mutant L262A (n = 5) or L264A TALK-2 channels (n = 8), respectively. Channels were activated by increasing pHe from 5.5 to 10.5 with 0.5 pH increments. Currents were elucidated with a voltage protocol ramped from −120 mV to +45 mV within 3.5 s, analyzed at +40 mV and normalized to pH 10.5. Data shown are the mean ± s.e.m and the number (n) of independent experiments is indicated in the figure and supplementary tables 3 and 4.
Conductance-voltage (G–V) relationships were determined from tail currents recorded at a holding potential (VH) of −80 mV after 300 ms depolarizing steps as indicated in the respective figure legend. Data were analyzed with a single Boltzmann fit following Eq. 6:6 GV=Imax/1+e^V−V1/2/slope+Ibase where V1/2 represents the voltage of half-maximal activation, s is the slope factor and Imax and Ibase represent the upper and lower asymptotes. Under appropriate experimental conditions, you can use slope to calculate the valence (charge) of the ion moving across the channel. Slope equals R * T/ z * F where R is the universal gas constant, T is temperature in K, F is the Faraday constant, and z is the valence.

WT TALK-2 channels = biological target: T2, WT TALK-2 channels (Homo sapiens, UniProt Q96T54); test: Pore blocker inhibition (dose-response, residual currents) in inside-out patches at +40 mV; assay type: cell-based; set-up: expressed in transfected cells; host or cells: Xenopus laevis oocytes (cRNA injection), excised inside-out patches; conditions: for IC50: IC50 of TPenA inhibition
T2 sequence (Q96T54 1-332): T1 sequence (Q96T54 1-332 L264A) with A264L
Experimental: Data shown are the mean ± s.e.m and the number (n) of independent experiments and repeats of representative measurements with similar results is indicated in the figure.
Electrophysiological recordings: Excised patch measurements in inside-out configuration under voltage-clamp conditions were performed at room temperature (22 – 24 °C). Patch pipettes were made from thick-walled borosilicate glass GB 200TF-8P (Science Products, Germany), had resistances of 0.2–0.5 MΩ (tip diameter of 10 - 25 µm) and filled with a pipette solution (in mM): 120 KCl, 10 HEPES and 3.6 CaCl2 (pH 7.0 - 8.5 adjusted with KOH/HCl) or 120 KCl, 10 AMPSO and 3.6 CaCl2 (pH 9.0 - 10.5 adjusted with KOH/HCl). Intracellular bath solutions and compounds were applied to the cytoplasmic side of excised patches for the various K^+ channels via a gravity flow multi-barrel pipette system. Intracellular solution had the following composition (in mM): 120 KCl, 10 HEPES, 2 EGTA and 1 Pyrophosphate (pH adjusted with KOH/HCl). In other intracellular bath solutions, K^+ was replaced by Rb^+ (pH 7.4 adjusted with RbOH/HCl). Currents were recorded with an EPC10 amplifier (HEKA electronics, Germany) and sampled at 10 kHz or higher and filtered with 3 kHz (-3 dB) or higher as appropriate for sampling rate.
Data analysis and statistics were done using Fitmaster (HEKA electronics, version: v2x73.5, Germany), Microsoft Excel 2021 (Microsoft Corporation, USA), and Igor Pro 9 software (WaveMetrics Inc., USA). Recorded currents were analyzed from stable membrane patches at a voltage defined in the respective figure legend or with a voltage protocol as indicated in the respective figure. […] Percentage inhibition or residual currents upon blocker application for a ligand (drug or bioactive lipid) was calculated from stable currents of excised membrane patches using the following Eqs. 2 and 3:2 %inhibition=1−Iinhibited/Ibasal*100 3 Residual current=100−%inhibition where Iinhibited refers to the stable current level recorded in the presence of a given concentration of a drug or bioactive lipid and Ibasal to the measured current before ligand application.

`NCCOB(c1ccccc1)c1ccccc1` [2-APB, 2-aminoethoxydiphenyl borate] was tested, and the “Fold activation 1 mM 2-APB” value ([1]; 1 mM) was 2.78 fold and the “further current increase by 2-APB” value ([1]; 1.0 mM 2-APB) was “only a minor further current increase”.

`CCCCC[N+](CCCCC)(CCCCC)CCCCC` [TPenA, Tetra-pentyl-ammonium chloride] showed a Normalized current ([2]; Voltage 0.000) of 0.564, a Normalized current ([2]; Voltage 0.005) of 0.623 and a Normalized current ([2]; Voltage 0.010) of 0.674. The Normalized current ([2]; Voltage 0.015) was 0.740, the Normalized current ([2]; Voltage 0.020) was 0.788 and the Normalized current ([2]; Voltage 0.025) was 0.840. For the same compound, the Normalized current ([2]; Voltage 0.030) was 0.884, the Normalized current ([2]; Voltage 0.035) was 0.911 and the Normalized current ([2]; Voltage 0.040) was 0.934. The Normalized current ([2]; Voltage 0.045) was 0.947, the Normalized current ([2]; Voltage 0.050) was 0.961 and the Normalized current ([2]; Voltage 0.055) was 0.969. The Normalized current ([2]; Voltage 0.060) was 0.977, the Normalized current ([2]; Voltage 0.065) was 0.978 and the Normalized current ([2]; Voltage 0.070) was 0.978. For the same compound, the Normalized current ([2]; Voltage 0.075) was 0.974, the Normalized current ([2]; Voltage 0.080) was 0.988 and the Normalized current ([2]; Voltage 0.085) was 0.976. For the same compound, the Normalized current ([2]; Voltage 0.090) was 0.979, the Normalized current ([2]; Voltage 0.095) was 0.980 and the Normalized current ([2]; Voltage 0.100) was 0.977. For the same compound, the Normalized current ([2]; Voltage 0.105) was 0.982, the Normalized current ([2]; Voltage 0.110) was 0.987 and the Normalized current ([2]; Voltage 0.115) was 0.981. The Normalized current ([2]; Voltage -0.005) was 0.522, the Normalized current ([2]; Voltage -0.010) was 0.490 and the Normalized current ([2]; Voltage -0.015) was 0.463. The Normalized current ([2]; Voltage -0.020) was 0.444, the Normalized current ([2]; Voltage -0.025) was 0.430 and the Normalized current ([2]; Voltage -0.030) was 0.417. For the same compound, the Normalized current ([2]; Voltage -0.035) was 0.405, the Normalized current ([2]; Voltage -0.040) was 0.395 and the Normalized current ([2]; Voltage -0.045) was 0.384. The Normalized current ([2]; Voltage -0.050) was 0.375, the Normalized current ([2]; Voltage -0.055) was 0.367 and the Normalized current ([2]; Voltage -0.060) was 0.359. For the same compound, the Normalized current ([2]; Voltage -0.065) was 0.351, the Normalized current ([2]; Voltage -0.070) was 0.345 and the Normalized current ([2]; Voltage -0.075) was 0.337. For the same compound, the Normalized current ([2]; Voltage -0.080) was 0.333, the Normalized current ([2]; Voltage -0.085) was 0.330 and the Normalized current ([2]; Voltage -0.090) was 0.331. The Normalized current ([2]; Voltage -0.095) was 0.326, the “effect of TPenA on the G-V curve” value ([2]; TALK-2 L264A, intracellular Rb+) was “no marked effect” and the IC50 (WT TALK-2 channels; 0.2 mM 2-APB, n = 7, legend of Fig. 5e) was 778 ± 116 µM. It also gave an IC50 (WT TALK-2 channels; 0.5 mM 2-APB, n = 5, legend of Fig. 5e) of 215 ± 28 µM, an IC50 (WT TALK-2 channels; 1.0 mM 2-APB, n = 16, legend of Fig. 5e) of 54 ± 10 µM and an IC50 (WT TALK-2 channels; pre-activated with 0.2 mM 2-APB, +40 mV) of 1110 ± 411 µM. The IC50 (WT TALK-2 channels; pre-activated with 0.5 mM 2-APB, +40 mV) was 225 ± 25 µM, the Normalized currents (WT TALK-2 channels; TALK-2 WT + 0.2 mM 2-APB, 1 µM TPenA) was 1.00 and the Normalized currents (WT TALK-2 channels; TALK-2 WT + 0.2 mM 2-APB, 10 µM TPenA) was 0.87. For the same compound, the Normalized currents (WT TALK-2 channels; TALK-2 WT + 0.2 mM 2-APB, 100 µM TPenA) was 0.81, the Normalized currents (WT TALK-2 channels; TALK-2 WT + 0.2 mM 2-APB, 1000 µM TPenA) was 0.47 and the Normalized currents (WT TALK-2 channels; TALK-2 WT + 0.2 mM 2-APB, 10000 µM TPenA) was 0.15. For the same compound, the Normalized currents (WT TALK-2 channels; TALK-2 WT + 0.5 mM 2-APB, 1 µM TPenA) was 1.02, the Normalized currents (WT TALK-2 channels; TALK-2 WT + 0.5 mM 2-APB, 10 µM TPenA) was 0.89 and the Normalized currents (WT TALK-2 channels; TALK-2 WT + 0.5 mM 2-APB, 100 µM TPenA) was 0.63. It also gave a Normalized currents (WT TALK-2 channels; TALK-2 WT + 0.5 mM 2-APB, 1000 µM TPenA) of 0.25, a Normalized currents (WT TALK-2 channels; TALK-2 WT + 0.5 mM 2-APB, 10000 µM TPenA) of 0.08 and a Normalized currents (WT TALK-2 channels; TALK-2 WT + 1.0 mM 2-APB, 1 µM TPenA) of 1.00. The Normalized currents (WT TALK-2 channels; TALK-2 WT + 1.0 mM 2-APB, 10 µM TPenA) was 0.87, the Normalized currents (WT TALK-2 channels; TALK-2 WT + 1.0 mM 2-APB, 100 µM TPenA) was 0.33 and the Normalized currents (WT TALK-2 channels; TALK-2 WT + 1.0 mM 2-APB, 1000 µM TPenA) was 0.07. For the same compound, the Normalized currents (WT TALK-2 channels; TALK-2 WT + 1.0 mM 2-APB, 2000 µM TPenA) was 0.06, the Normalized currents (WT TALK-2 channels; TALK-2 WT + 1.0 mM 2-APB, 5000 µM TPenA) was 0.06 and the Normalized currents (WT TALK-2 channels; TALK-2 WT + 1.0 mM 2-APB, 10000 µM TPenA) was 0.01. For the same compound, the “Residual currents with 1 mM TPenA” value (WT TALK-2 channels; TALK-2 WT unstimulated, +40 mV) was 101.31%, the “Residual currents with 1 mM TPenA” value (WT TALK-2 channels; TALK-2 WT, 0.2 mM 2-APB, +40 mV) was 47.38% and the “Residual currents with 1 mM TPenA” value (WT TALK-2 channels; TALK-2 WT, 0.5 mM 2-APB, +40 mV) was 25.47%. For the same compound, the “Residual currents with 1 mM TPenA” value (WT TALK-2 channels; TALK-2 WT, 1.0 mM 2-APB, +40 mV) was 6.78%, the Normalized currents (WT TALK-2 channels; TALK-2 WT, 1 µM TPenA) was 0.98 and the Normalized currents (WT TALK-2 channels; TALK-2 WT, 10 µM TPenA) was 0.97. It also gave a Normalized currents (WT TALK-2 channels; TALK-2 WT, 100 µM TPenA) of 0.95, a Normalized currents (WT TALK-2 channels; TALK-2 WT, 1000 µM TPenA) of 0.95 and a Normalized currents (WT TALK-2 channels; TALK-2 WT, 5000 µM TPenA) of 0.98. For the same compound, the Normalized currents (WT TALK-2 channels; TALK-2 WT, 10000 µM TPenA) was 0.99 and the “TPenA block in the basal state” value (WT TALK-2 channels; basal state (low PO), 1.0 mM TPenA) was “hardly any TPenA block”.
